System: arachidonic acid-induced ear edema
Assay: Arachidonic acid-induced mouse ear edema test, single topical application
Format: in vivo, Balb/c mice
Set-up: Mean ear edema: unit not given here
Settings: indomethacin 5%, ivermectin 1%, diclofenac 1%; for Mean ear edema: single topical application on right ear with AA 4%; for Inhibition vs AA 4%: single topical application with AA 4%
Procedure: Example 1: Evaluation of the Anti-Inflammatory Activity of Ivermectin and Diclofenac after a Single Topical Application in the Arachidonic Acid-Induced Mouse Ear Edema Test on Balb/c Mice
Arachidonic acid is dissolved in a mixture of THF/Methanol at 4%.
Tested compounds were dissolved in arachidonic acid solution, at final concentration.
20 μl of the tested compound is dissolved in arachidonic acid solution and applied on the internal side of the right ear.
The ear thickness is measured at T=0 h, T+1 h, T+2 h, T+4 h.
THF/Methanol is used as vehicle control.
Indomethacin 5% is used as positive control and arachidonic acid at 4% in THF/Methanol is used as inductor of inflammation.

[1] = ear thickness measurement after 1 h
[2] = ear thickness measurement after 2 h
[3] = ear thickness measurement after 4 h

| Molecule | Mean ear edema (1 h measurement) | Mean ear edema (2 h measurement) | Mean ear edema (4 h measurement) | Inhibition vs AA 4% (1 h measurement) | Inhibition vs AA 4% (2 h measurement) | Inhibition vs AA 4% (4 h measurement) | inhibition of the ear edema caused by arachidonic acid [1] [%] | inhibition of the ear edema caused by arachidonic acid [2] [%] | inhibition of the ear edema caused by arachidonic acid [3] [%] |
| --- | --- | --- | --- | --- | --- | --- | --- | --- | --- |
| CCCCC/C=C\C/C=C\C/C=C\C/C=C\CCCC(=O)O [Arachidonic acid (AA), Arachidonic acid] | 18.8 | 16.2 | 13.4 |  |  |  |  |  |  |
| ivermectin | 8.2 | 8.6 | 6.2 | 56.4 | 46.9 | 53.7 | 56 | 47 | 54 |
| COc1ccc2c(c1)c(CC(=O)O)c(C)n2C(=O)c1ccc(Cl)cc1 [indomethacin] | 1 | 1 | 1 | 94.7 | 93.8 | 92.5 | 95 | 94 | 92.5 |
| O=C(O)Cc1ccccc1Nc1c(Cl)cccc1Cl [diclofenac, 2-(2-(2,6-dichlorophenylamino)phenyl)acetic acid] | 6 | 4 | 3 | 68.1 | 75.3 | 77.6 | 68 | 75 | 78 |

From US10874682B2, “Compositions and the use thereof for treating or preventing rosacea” (NESTLÉ SKIN HEALTH SA, priority 2016, dated 2020)
